Assay results reported in US10947188B2, “Small molecule ferroptosis inducers” (THE TRUSTEES OF COLUMBIA UNIVERSITY IN THE CITY OF NEW YORK, priority 2016, dated 2021).

Columns and labels:
[1] = test system: BJeLR; test: Modulatory profiling: Alamar Blue viability, lethal compound cotreated with death modulator (EC50, AUC); format: cell-based, human; set-up: AUC, modulator BJ.Gd3+ / AUC, modulator BJ.LNAME / AUC, modulator BJ.Lmin / AUC, modulator BJ.3MA / AUC, modulator BJ.ALLN / AUC, modulator BJ.Boc D / AUC, modulator BJ.CHX / AUC, modulator BJ.Co2+ / AUC, modulator BJ.Nec-1 / AUC, modulator BJ.Pepstatin / AUC, modulator BJ.TLCK / AUC, modulator BJ.atoc / AUC, modulator BJ.trolox / AUC, modulator BJ.zVAD: unit not given beside the values; conditions: BJeLR cells, modulatory profile value (AUC); for AUC, modulator BJ.3MA: lethal compound cotreated with modulator 3MA; for AUC, modulator BJ.ALLN: lethal compound cotreated with modulator ALLN; for AUC, modulator BJ.Boc D: lethal compound cotreated with modulator Boc D; for AUC, modulator BJ.CHX: lethal compound cotreated with modulator CHX; for AUC, modulator BJ.Co2+: lethal compound cotreated with modulator Co2+; for AUC, modulator BJ.DPQ: lethal compound cotreated with modulator DPQ; for AUC, modulator BJ.Gd3+: lethal compound cotreated with modulator Gd3+; for AUC, modulator BJ.LNAME: lethal compound cotreated with modulator LNAME; for AUC, modulator BJ.Lmin/NAD+: lethal compound cotreated with modulator Lmin/NAD+; for AUC, modulator BJ.Lmin: lethal compound cotreated with modulator Lmin; for AUC, modulator BJ.NAD+: lethal compound cotreated with modulator NAD+; for AUC, modulator BJ.NMMA: lethal compound cotreated with modulator NMMA; for AUC, modulator BJ.Nec-1: lethal compound cotreated with modulator Nec-1; for AUC, modulator BJ.Pepstatin: lethal compound cotreated with modulator Pepstatin; for AUC, modulator BJ.TLCK: lethal compound cotreated with modulator TLCK; on AUC, modulator BJ.3MA: reference of the scale not given here; on AUC, modulator BJ.ALLN: reference of the scale not given here; on AUC, modulator BJ.Boc D: reference of the scale not given here; on AUC, modulator BJ.CHX: reference of the scale not given here; on AUC, modulator BJ.Co2+: reference of the scale not given here; on AUC, modulator BJ.DPQ: reference of the scale not given here; on AUC, modulator BJ.Gd3+: reference of the scale not given here; on AUC, modulator BJ.LNAME: reference of the scale not given here; on AUC, modulator BJ.NAD+: reference of the scale not given here; on AUC, modulator BJ.NMMA: reference of the scale not given here; on AUC, modulator BJ.Nec-1: reference of the scale not given here; on AUC, modulator BJ.Pepstatin: reference of the scale not given here; on AUC, modulator BJ.TLCK: reference of the scale not given here
[2] = test system: HT-1080; test: as above; format: cell-based; set-up: AUC, modulator HT.3MA / AUC, modulator HT.ALLN / AUC HT.ATA / AUC HT.ActD / AUC HT.BHA / AUC HT.BHT / AUC HT.BocD / AUC HT.CHX / AUC HT.Co2+ / AUC HT.DPQ / AUC HT.EGTA / AUC HT.Lmim / AUC HT.NAD+ / AUC HT.Nec-1 / AUC HT.SP600125 / AUC HT.TLCK / AUC HT.U0126: unit not given beside the values; conditions: for AUC HT.ATA: HT-1080, modulator ATA; for AUC HT.ActD: HT-1080, modulator ActD; for AUC HT.BHA: HT-1080, modulator BHA; for AUC HT.BHT: HT-1080, modulator BHT; for AUC HT.BocD: HT-1080, modulator BocD; for AUC HT.CHX: HT-1080, modulator CHX; for AUC HT.Co2+: HT-1080, modulator Co2+; for AUC HT.CspA: HT-1080, modulator CspA; for AUC HT.DPQ: HT-1080, modulator DPQ; for AUC HT.EGTA: HT-1080, modulator EGTA; for AUC HT.Gd3+: HT-1080, modulator Gd3+; for AUC HT.LNAME: HT-1080, modulator LNAME; for AUC HT.Lmim: HT-1080, modulator Lmim; for AUC HT.NAD+: HT-1080, modulator NAD+; for AUC HT.NMMA: HT-1080, modulator NMMA; for HT.atoc (AUC) / HT.bCarotene (AUC) / HT.deferox (AUC) / HT.digoxin (AUC) / HT.trolox (AUC) / HT.zVAD (AUC): HT-1080; for HT.atoc (AUC): modulator atoc; for HT.bCarotene (AUC): modulator bCarotene; for HT.deferox (AUC): modulator deferox; for HT.digoxin (AUC): modulator digoxin; for HT.trolox (AUC): modulator trolox; for HT.zVAD (AUC): modulator zVAD; on AUC HT.BHA: reference of the scale not given here; on AUC HT.EGTA: reference of the scale not given here

Q: How did the “AUC, modulator BJ.3MA” value [1] turn out when `Cc1cccc(Cn2ncc(Cl)c(Cl)c2=O)c1` [CIL60] was run?
A: Its value is 0.06736.

Q: What about the “AUC, modulator BJ.ALLN” value [1] of the same compound?
A: The value was −0.004197.

Q: What about the “AUC, modulator BJ.Boc D” value [1] of the same compound?
A: The value was 0.02626.

Q: And the “AUC, modulator BJ.CHX” value [1]?
A: Its value is 0.1803.

Q: And the “AUC, modulator BJ.Co2+” value [1]?
A: Its value is 0.03836.

Q: What about the “AUC, modulator BJ.DPQ” value [1] of the same compound?
A: Its value is 0.02057.

Q: What about the “AUC, modulator BJ.Gd3+” value [1] of the same compound?
A: Its value is 0.02704.

Q: What about the “AUC, modulator BJ.LNAME” value [1] of the same compound?
A: Its value is −0.01542.

Q: And the “AUC, modulator BJ.Lmin/NAD+” value [1]?
A: The value was 0.05888.

Q: What about the “AUC, modulator BJ.Lmin” value [1] of the same compound?
A: Its value is 0.04196.

Q: And the “AUC, modulator BJ.NAD+” value [1]?
A: The value was 0.05735.

Q: And the “AUC, modulator BJ.NMMA” value [1]?
A: The value was −0.03338.

Q: What about the “AUC, modulator BJ.Nec-1” value [1] of the same compound?
A: Its value is 0.08176.

Q: And the “AUC, modulator BJ.Pepstatin” value [1]?
A: Its value is 0.1359.

Q: What about the “AUC, modulator BJ.TLCK” value [1] of the same compound?
A: Its value is −0.06705.

Q: And the “AUC HT.ATA” value [2]?
A: The value was 0.07052.

Q: What about the “AUC HT.ActD” value [2] of the same compound?
A: Its value is 0.04832.

Q: And the “AUC HT.BHA” value [2]?
A: Its value is −0.0006407.

Q: And the “AUC HT.BHT” value [2]?
A: The value was −0.1303.

Q: And the “AUC HT.BocD” value [2]?
A: Its value is −0.04051.

Q: What about the “AUC HT.CHX” value [2] of the same compound?
A: Its value is 0.112.

Q: And the “AUC HT.Co2+” value [2]?
A: Its value is −0.08003.

Q: And the “AUC HT.CspA” value [2]?
A: Its value is −0.004831.

Q: And the “AUC HT.DPQ” value [2]?
A: The value was 0.02073.

Q: And the “AUC HT.EGTA” value [2]?
A: Its value is 0.05296.

Q: And the “AUC HT.Gd3+” value [2]?
A: Its value is −0.0163.

Q: And the “AUC HT.LNAME” value [2]?
A: Its value is 0.004397.

Q: And the “AUC HT.Lmim” value [2]?
A: The value was 0.03464.

Q: And the “AUC HT.NAD+” value [2]?
A: Its value is 0.01526.

Q: And the “AUC HT.NMMA” value [2]?
A: Its value is −0.01091.

Q: What about the “HT.atoc (AUC)” value [2] of the same compound?
A: Its value is 0.08708.

Q: And the “HT.bCarotene (AUC)” value [2]?
A: The value was 0.04979.

Q: And the “HT.deferox (AUC)” value [2]?
A: Its value is 0.07702.

Q: And the “HT.digoxin (AUC)” value [2]?
A: The value was −0.03602.

Q: And the “HT.trolox (AUC)” value [2]?
A: Its value is −0.0265.

Q: What about the “HT.zVAD (AUC)” value [2] of the same compound?
A: The value was −0.009922.

Q: Which “AUC, modulator BJ.3MA” value [1] does the source give for `O=[N+]([O-])c1ccc(O)c([N+](=O)[O-])c1` here?
A: The value was −0.008182.

Q: And the “AUC, modulator BJ.ALLN” value [1]?
A: The value was −0.03838.

Q: What about the “AUC, modulator BJ.Boc D” value [1] of the same compound?
A: The value was −0.01714.

Q: What about the “AUC, modulator BJ.CHX” value [1] of the same compound?
A: The value was 0.189.

Q: What about the “AUC, modulator BJ.Co2+” value [1] of the same compound?
A: The value was −0.008316.

Q: And the “AUC, modulator BJ.DPQ” value [1]?
A: The value was −0.03251.

Q: What about the “AUC, modulator BJ.Gd3+” value [1] of the same compound?
A: Its value is −0.01413.

Q: And the “AUC, modulator BJ.LNAME” value [1]?
A: The value was −0.0202.

Q: And the “AUC, modulator BJ.Lmin” value [1]?
A: Its value is −0.0205.

Q: And the “AUC, modulator BJ.NAD+” value [1]?
A: Its value is 0.06986.

Q: And the “AUC, modulator BJ.NMMA” value [1]?
A: Its value is −0.02735.

Q: What about the “AUC, modulator BJ.Nec-1” value [1] of the same compound?
A: The value was −0.001955.

Q: What about the “AUC, modulator BJ.Pepstatin” value [1] of the same compound?
A: The value was 0.05394.

Q: What about the “AUC, modulator BJ.TLCK” value [1] of the same compound?
A: Its value is −0.0426.

Q: What about the “AUC, modulator BJ.atoc” value ([1]; lethal compound cotreated with modulator atoc) of the same compound?
A: Its value is 0.02318.

Q: And the “AUC, modulator BJ.trolox” value ([1]; lethal compound cotreated with modulator trolox)?
A: The value was 0.009957.

Q: And the “AUC, modulator BJ.zVAD” value ([1]; lethal compound cotreated with modulator zVAD)?
A: The value was −0.0001198.

Q: What about the “AUC, modulator HT.3MA” value ([2]; HT-1080 cells, lethal compound cotreated with modulator 3MA, modulatory profile value (AUC)) of the same compound?
A: Its value is −0.1332.

Q: With `O=c1c(Cl)c(Cl)cnn1-c1ccc(Cl)cc1` [CIL63] as the compound, how does the “AUC, modulator BJ.3MA” value [1] read?
A: The value was 0.04075.

Q: And the “AUC, modulator BJ.ALLN” value [1]?
A: Its value is 0.0544.

Q: What about the “AUC, modulator BJ.Boc D” value [1] of the same compound?
A: Its value is −0.01053.

Q: What about the “AUC, modulator BJ.CHX” value [1] of the same compound?
A: Its value is 0.09508.

Q: What about the “AUC, modulator BJ.Co2+” value [1] of the same compound?
A: Its value is 0.02177.

Q: What about the “AUC, modulator BJ.DPQ” value [1] of the same compound?
A: Its value is 0.0003046.

Q: And the “AUC, modulator BJ.Gd3+” value [1]?
A: Its value is 0.01459.

Q: What about the “AUC, modulator BJ.LNAME” value [1] of the same compound?
A: Its value is −0.006812.

Q: And the “AUC, modulator BJ.Lmin/NAD+” value [1]?
A: Its value is 0.07776.

Q: And the “AUC, modulator BJ.Lmin” value [1]?
A: Its value is 0.01215.

Q: What about the “AUC, modulator BJ.NAD+” value [1] of the same compound?
A: Its value is 0.02352.

Q: What about the “AUC, modulator BJ.NMMA” value [1] of the same compound?
A: Its value is 0.002719.

Q: And the “AUC, modulator BJ.Nec-1” value [1]?
A: Its value is 0.02815.

Q: And the “AUC, modulator BJ.Pepstatin” value [1]?
A: The value was 0.02882.

Q: And the “AUC, modulator BJ.TLCK” value [1]?
A: The value was −0.0437.

Q: And the “AUC HT.ATA” value [2]?
A: Its value is 0.07925.

Q: What about the “AUC HT.ActD” value [2] of the same compound?
A: Its value is −0.003254.

Q: What about the “AUC HT.BHA” value [2] of the same compound?
A: Its value is 0.01784.

Q: And the “AUC HT.BHT” value [2]?
A: The value was −0.1088.

Q: What about the “AUC HT.BocD” value [2] of the same compound?
A: Its value is 0.01855.

Q: What about the “AUC HT.CHX” value [2] of the same compound?
A: The value was 0.07744.

Q: What about the “AUC HT.Co2+” value [2] of the same compound?
A: The value was 0.02639.

Q: What about the “AUC HT.CspA” value [2] of the same compound?
A: The value was 0.003063.

Q: What about the “AUC HT.DPQ” value [2] of the same compound?
A: The value was −0.02172.

Q: And the “AUC HT.EGTA” value [2]?
A: The value was 0.06222.

Q: And the “AUC HT.Gd3+” value [2]?
A: The value was −0.03164.

Q: And the “AUC HT.LNAME” value [2]?
A: Its value is 0.04201.

Q: What about the “AUC HT.Lmim” value [2] of the same compound?
A: Its value is 0.03962.

Q: What about the “AUC HT.NAD+” value [2] of the same compound?
A: Its value is 0.03316.

Q: And the “AUC HT.NMMA” value [2]?
A: The value was −0.002298.

Q: What about the “HT.atoc (AUC)” value [2] of the same compound?
A: Its value is 0.07269.

Q: What about the “HT.bCarotene (AUC)” value [2] of the same compound?
A: Its value is 0.0644.

Q: What about the “HT.deferox (AUC)” value [2] of the same compound?
A: Its value is 0.08989.

Q: And the “HT.digoxin (AUC)” value [2]?
A: Its value is 0.02371.

Q: And the “HT.trolox (AUC)” value [2]?
A: The value was 0.03222.

Q: And the “HT.zVAD (AUC)” value [2]?
A: The value was 0.01846.
